Measurements reported in article PMC7192623, “Regulation of the RNA and DNA nuclease activities required for Pyrococcus furiosus Type III-B CRISPR–Cas immunity” (Nucleic Acids Research, 2020).

Legend:
Pfu Csx1 [1] = molecular target: T1, Pfu Csx1 (Pyrococcus furiosus, UniProt Q8U1S8); experiment: cleavage of radiolabelled Cmr-produced native cOA, sequencing gel; type: biochemical; details: HEPN active site; labelled compound; native cOA preparation (mainly cA4, also cA3), product presumed A2>p; 70 °C
T1 construct: gene PF1127; full-length, N-terminal 6x-His tag, modified pET24-D, expressed in E. coli BL21-RIPL (DE3)
T1 sequence (Q8U1S8 1-478): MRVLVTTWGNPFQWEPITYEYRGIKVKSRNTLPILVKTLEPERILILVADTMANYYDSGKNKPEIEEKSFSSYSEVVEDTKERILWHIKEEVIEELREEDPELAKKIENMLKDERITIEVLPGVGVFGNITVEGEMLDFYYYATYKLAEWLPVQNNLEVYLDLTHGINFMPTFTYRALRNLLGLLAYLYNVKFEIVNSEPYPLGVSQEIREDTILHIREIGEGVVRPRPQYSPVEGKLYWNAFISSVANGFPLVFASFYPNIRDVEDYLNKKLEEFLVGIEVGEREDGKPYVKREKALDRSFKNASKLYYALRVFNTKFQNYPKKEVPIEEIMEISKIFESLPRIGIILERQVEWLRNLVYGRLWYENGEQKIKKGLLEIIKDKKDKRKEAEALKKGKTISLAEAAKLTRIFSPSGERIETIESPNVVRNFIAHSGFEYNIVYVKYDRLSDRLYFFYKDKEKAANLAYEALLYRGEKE

Pfu Csx1 [2] = molecular target: T1, Pfu Csx1; experiment: RNase activation assay, […]'-32P-labelled target RNA, urea-PAGE; type: biochemical; details: allosteric activator via CARF domain; synthetic cA4 at 1.85, 18.5 and 185 pM; 20 nM Csx1; 20 mM Tris-HCl pH 7.5, 200 mM NaCl, 70 °C

## Nc1ncnc2c1ncn2[C@@H]1O[C@@H]2COP(=O)(O)O[C@H]3[C@@H](O)[C@H](n4cnc5c(N)ncnc54)O[C@@H]3COP(=O)(O)O[C@H]3[C@@H](O)[C@H](n4cnc5c(N)ncnc54)O[C@@H]3COP(=O)(O)O[C@H]3[C@@H](O)[C@H](n4cnc5c(N)ncnc54)O[C@@H]3COP(=O)(O)O[C@H]2[C@H]1O [cA4]
Pfu Csx1 [1]
  cleavage of radiolabelled Cmr-produced native cOA, sequencing gel: also degrades its cognate cyclic-tetra-AMP (cA4) activator to switch off the signaling pathway
Pfu Csx1 [2]
  RNase activation assay, 5'-32P-labelled target RNA, urea-PAGE: cA4 but not cA6 stimulated the ribonuclease activity of Csx1
